# Measurements reported in patent publication US20230363335A1, “STANDARDIZED AND VIRUS-FREE RAPID PROPAGATION METHOD OF DIANTHUS CARYOPHYLLUS” (Flower Research Institute, Yunnan Academy of Agricultural …, priority 2022, published 2023).
# Experiments:
# [1] = system: Dianthus caryophyllus shoot apex; experiment: Virus-free culture, ribavirin combined with shoot apex peeling: regeneration of peeled shoot apex; type: in vivo; conditions: 3 mg/L to 5 mg/L ribavirin in medium, 30 d to 40 d; for Number of regenerated plant (s): 30 shoot apexes
# Text: After the explant germinated and buds grew to 2 cm to 3 cm, the buds were cut and subjected to virus-free culture; three virus-free methods were used, and the most suitable virus-free method was selected for Dianthus caryophyllus. • (1) Directly shoot apex peeling method: the material was placed on an ultra-clean workbench, and tender leaves were peeled off with tweezers and a scalpel under the naked eye to expose a growth cone; a base of the bud was fixed with tweezers, and the shoot apex was continued to be peeled under a dissecting microscope at 25 to 50 times; when peeling to a growth point containing 1 to 2 pairs of leaf primordia, the shoot apex was picked on a medium with the tip of a knife. • (2) High-temperature treatment combined with shoot apex peeling method: the material was placed in a KBWF720 artificial climate box, and incubated for 30 d to 35 d at 38° C. ± 1° C. every day, with illumination for 14 h to 16 h at 1,200 Lux to 1,500 Lux, and then with darkness for 8 h to 10 h; and the shoot apex was continued to be peeled under a dissecting microscope at 25 to 50 times; when peeling to a growth point containing 1 to 2 pairs of leaf primordia, the shoot apex was picked on a medium with the tip of a knife. • (3) Ribavirin combined with shoot apex peeling method: the material was inoculated on a medium containing ribavirin for culture, namely MS+BA 0.5 mg/L to 1.5 mg/L+NAA 0.1 mg/L to 0.3 mg/L+3 mg/L to 5 mg/L ribavirin+A Agar 6.0 g/L, 3% sucrose, at a pH value of 5.8 to 6.0; after culturing for 30 d to 40 d, the shoot apex was peeled off.
# The peeled shoot apex was inoculated on a medium including MS+BA 0.5 mg/L to 1.0 mg/L+NAA 0.1 mg/L to 0.3 mg/L+A agar 6.0 g/L, 3% sucrose, at a pH value of 5.8 to 6.0; each shoot apex was cultured and numbered separately; the culture was conducted at 22±1° C. and an illumination intensity of 2,000 Lux to 4,000 Lux with an illumination time of 10 h/d to 12 h/d.
# [2] = system: Carnation mottle virus (CarMV) and Carnation necrotic fleck virus (CNFV); experiment: Virus-free culture, ribavirin combined with shoot apex peeling: virus-free regenerated plants; type: in vivo, Dianthus caryophyllus; conditions: 3 mg/L to 5 mg/L ribavirin in medium, 30 d to 40 d; for Number of virus-free regenerated plant (s): 30 shoot apexes
# Procedure: Double-antibody sandwich ELISA included: 100 µL of an antibody diluted to a working concentration with a coating buffer was added to wells of a microtiter plate, the microtiter plate was placed in a wet box, and incubated in a refrigerator at 4° C. overnight, or incubated at room temperature (20° C. to 25° C.) for 4 h. The coating buffer was a 0.05 mol/L Na2CO3—NaHCO3 buffer, at a pH value of 9.6. Dianthus caryophyllus leaves and a grinding buffer were put in a disposable ziplock bag at a ratio of 1:10 (W/V), the bag was sealed tightly, and the sample was ground. The grinding buffer was obtained by: dissolving 2.0 g of a skim milk powder, 10.0 g of polyvinylpyrrolidone (PVP, MW24,000-40,000), 1.3 g of anhydrous sodium sulfite, 0.2 g of NaN3, and 10.0 g of Tween-20 in a washing buffer (PBST), diluting to 1,000 mL, and storing at 4° C. The washing buffer (PBST) was obtained by: dissolving 8.0 g of NaCl, 0.2 g of KH2PO4, 2.9 g of Na2HPO4·12H2O, 0.2 g of KCl, and 0.5 mL of Tween-20 in distilled water, diluting to 1,000 mL, and adjusting to a pH value of 7.4. After incubation, the microtiter plate was washed 4 to 6 times with the washing buffer. 400 µL of the PBST washing buffer was added to each well and held for 1 min to 2 min each time. 100 µL of a supernatant after grinding was added to each well, and each sample to be tested was repeated twice, and a negative control and a positive control were set at the same time. The microtiter plate was placed in a wet box, incubated in a refrigerator at 4° C. overnight or incubated at 21° C. to 24° C. for 2.5 h. The plate was washed. An enzyme-labeled antibody was prepared 10 min before coating, a dilution buffer of the specific enzyme-labeled antibody was diluted to a working concentration, and 100 µL was added to each well. The microtiter plate was placed in a wet box, incubated at 21° C. to 24° C. for 2.5 h. The plate was washed. The dilution buffer of the enzyme-labeled antibody was obtained by: dissolving 2.0 g of bovine serum albumin (BSA), 10.0 g of PVP (MW24,000-40,000), and 0.2 g of NaN3 in the PBST, diluting to 1,000 mL, and storing at 4° C. 100 µL of a substrate solution was added to each well. The substrate solution was prepared for immediate use by: dissolving 1 mg of PNPP in 1 mL of a substrate buffer, with a concentration of 1 mg/mL. The substrate buffer is obtained by: dissolving 97.0 mL of diethanolamine, 0.1 g of magnesium chloride, and 0.2 g of NaN3 in 800 mL of distilled water, adjusting to a pH value of 9.8 with 2 mol/L hydrochloric acid, diluting to 1000 mL, and storing at 4° C. The microtiter plate was placed in a wet box, to conduct color development at 21° C. to 24° C. for 30 min to 60 min in the dark. 50 µL of a stop solution was added to each well to stop the reaction. The stop solution was a sodium hydroxide solution of 3 mol/L. Within 20 min of stopping the reaction, the microtiter plate was placed in a microplate reader, an absorbance (OD405) was measured at 405 nm, and a reaction result was recorded. If an average OD value of the sample was greater than 2 times an OD value of the negative control, it was determined to be the CarMV.
# The indirect ELISA included: Dianthus caryophyllus leaves and an indirect sample extraction buffer were placed in a disposable ziplock bag at a ratio of 1:100 (W/V), the bag was sealed tightly, and the sample was ground. The sample extraction buffer was obtained by: dissolving 20.1 g of PVP (MW24,000-40,000), 0.2 g of NaN3, 3.0 g of NaHCO3, and 1.6 g of Na2CO3 in distilled water, diluting to […], and storing at 4° C. 100 µL of a supernatant after grinding was added to each well, and each sample to be tested was repeated twice, and a negative control and a positive control were set at the same time. The microtiter plate was placed in a wet box and incubated at room temperature for 1 h. After incubation, the microtiter plate was washed 8 times with the PBST washing buffer. […]
# [3] = growth point of peeled shoot apex 0.2 mm
# [4] = growth point of peeled shoot apex 0.4 mm
# [5] = growth point of peeled shoot apex 0.6 mm
# [6] = growth point of peeled shoot apex 0.8 mm
# [7] = growth point of peeled shoot apex 1.0 mm
smiles,measurement,setting,value
"NC(=O)c1ncn([C@@H]2O[C@H](CO)[C@@H](O)[C@H]2O)n1 [Ribavirin, ribavirin]",Regeneration rate (%),[1]; [3],53.33%
same,Number of regenerated plant (s),[1]; [3],16
same,Regeneration rate (%),[1]; [4],63.33%
same,Number of regenerated plant (s),[1]; [4],19
same,Regeneration rate (%),[1]; [5],73.33%
same,Number of regenerated plant (s),[1]; [5],22
same,Regeneration rate (%),[1]; [6],86.67%
same,Number of regenerated plant (s),[1]; [6],26
same,Regeneration rate (%),[1]; [7],96.67%
same,Number of regenerated plant (s),[1]; [7],29
same,Virus-free rate (%),[2]; [3],33.33%
same,Number of virus-free regenerated plant (s),[2]; [3],10
same,Virus-free rate (%),[2]; [4],30.00%
same,Number of virus-free regenerated plant (s),[2]; [4],9
same,Virus-free rate (%),[2]; [5],26.67%
same,Number of virus-free regenerated plant (s),[2]; [5],8
same,Virus-free rate (%),[2]; [6],20.00%
same,Number of virus-free regenerated plant (s),[2]; [6],6
same,Virus-free rate (%),[2]; [7],10.00%
same,Number of virus-free regenerated plant (s),[2]; [7],3
